Assay results: PubChem BioAssay (NCI)
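1) Cells in 96-well plates. 2) Compound, 48 h, 5 concentrations. 3) Linear interpolation between surrounding doses. 4) Unreached endpoint = highest concentration. Definition used: TGI = concentration required for complete inhibition of growth.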

Experiments:
Test in all cases: NCI tumour cell line growth inhibition, 48 h
HT29 colon = system: HT29 colon
SF-539 CNS = system: SF-539 CNS
SF-268 CNS = system: SF-268 CNS
RPMI-8226 leukemia = system: RPMI-8226 leukemia
M14 melanoma = system: M14 melanoma
LOX IMVI melanoma = system: LOX IMVI melanoma
OVCAR-3 ovarian = system: OVCAR-3 ovarian
SK-MEL-2 melanoma = system: SK-MEL-2 melanoma
RXF 393 renal = system: RXF 393 renal
HCC-2998 colon = system: HCC-2998 colon
DU-145 prostate = system: DU-145 prostate
KM12 colon = system: KM12 colon
CAKI-1 renal = system: CAKI-1 renal
786-0 renal = system: 786-0 renal
OVCAR-8 ovarian = system: OVCAR-8 ovarian
SW-620 colon = system: SW-620 colon
HCT-15 colon = system: HCT-15 colon
IGROV1 ovarian = system: IGROV1 ovarian
SNB-19 CNS = system: SNB-19 CNS
BT-549 breast = system: BT-549 breast

| SMILES | TGI (HT29 colon) [µM] | TGI (SF-539 CNS) [µM] | TGI (SF-268 CNS) [µM] | TGI (RPMI-8226 leukemia) [µM] | TGI (M14 melanoma) [µM] | TGI (LOX IMVI melanoma) [µM] | TGI (OVCAR-3 ovarian) [µM] | TGI (SK-MEL-2 melanoma) [µM] | TGI (RXF 393 renal) [µM] | TGI (HCC-2998 colon) [µM] | TGI (DU-145 prostate) [µM] | TGI (KM12 colon) [µM] | TGI (CAKI-1 renal) [µM] | TGI (786-0 renal) [µM] | TGI (OVCAR-8 ovarian) [µM] | TGI (SW-620 colon) [µM] | TGI (HCT-15 colon) [µM] | TGI (IGROV1 ovarian) [µM] | TGI (SNB-19 CNS) [µM] | TGI (BT-549 breast) [µM] |
| --- | --- | --- | --- | --- | --- | --- | --- | --- | --- | --- | --- | --- | --- | --- | --- | --- | --- | --- | --- | --- |
| Cc1ccc(/C(=C\C(=O)C(=O)NC23CC4CC(CC(C4)C2)C3)Sc2ccccc2)cc1 | > 10 | > 10 | > 10 | > 10 | > 10 | > 10 | > 10 | > 10 | > 10 | > 10 | > 10 | > 10 | > 10 | > 10 | > 10 | > 10 | > 10 | > 10 | – | – |
| COc1ccc2c(c1)c1c(n2CCN(C)C)-c2cccc(OC)c2CC1 | 14 | – | 38.9 | 18.2 | 24.9 | 37.4 | 30.9 | 30.2 | – | 34.9 | 39.5 | 25.4 | 29.1 | > 100 | 42.4 | – | 45.9 | 39 | 46.8 | 40.5 |
| Cc1cnc(-c2c[nH]c3ccccc23)nc1-c1c[nH]c2ccccc12 | 14.7 | 30.7 | 35.6 | > 100 | 16.4 | 17.1 | 21.7 | 20.6 | – | 15.8 | 20.1 | 15.6 | 23.2 | 10.7 | 22.7 | 30.2 | 27 | 14.8 | 24.9 | 67.7 |
| O1C2C1C1OC1C1OC1C1OC21 (stereo not given) | > 100 | – | > 100 | – | > 100 | > 100 | – | > 100 | – | > 100 | > 100 | > 100 | > 100 | > 100 | > 100 | – | > 100 | – | > 100 | > 100 |
| O=C1c2ccccc2-c2c1c(-c1ccc([N+](=O)[O-])cc1)nc1ccc3ccccc3c21 | > 100 | > 100 | > 100 | > 100 | > 100 | – | > 100 | > 100 | – | > 100 | > 100 | > 100 | > 100 | > 100 | > 100 | > 100 | > 100 | – | > 100 | > 100 |
| CCOC(=O)c1cc2c(nc1N)-c1ncccc1CC2 | > 100 | > 100 | > 100 | 68.8 | > 100 | > 100 | > 100 | > 100 | > 100 | > 100 | – | > 100 | > 100 | > 100 | > 100 | > 100 | > 100 | > 100 | > 100 | – |
| COc1ccc(/C=C2\N=C3Sc4c(nc[nH]c4=O)N3C2=O)cc1 | > 100 | > 100 | > 100 | > 100 | > 100 | > 100 | > 100 | > 100 | > 100 | > 100 | > 100 | > 100 | > 100 | > 100 | > 100 | > 100 | > 100 | > 100 | > 100 | – |
| CC1(C)OC(C[C@]2(C#N)C[C@H](CCl)OC(C)(C)O2)C[C@@H](C[C@]2(C#N)C[C@H](CCl)OC(C)(C)O2)O1 (stereo not given in full) | > 100 | > 100 | > 100 | > 100 | > 100 | > 100 | > 100 | > 100 | – | > 100 | – | > 100 | > 100 | > 100 | > 100 | > 100 | > 100 | > 100 | > 100 | – |
| CN(Cc1cnc2nc(N)nc(N)c2n1)c1ccc(C(=O)NCS(=O)(=O)O)cc1 | > 100 | > 100 | > 100 | > 100 | > 100 | > 100 | > 100 | > 100 | – | > 100 | 82.7 | > 100 | – | > 100 | > 100 | > 100 | > 100 | > 100 | > 100 | > 100 |
| CCCCCC[C@H]1CC(=O)C2CCCC[C@@]23CC[C@H](CCl)N13 (stereo not given in full) (tested in a mixture with another compound) | > 100 | > 100 | > 100 | 61.6 | > 100 | – | > 100 | > 100 | – | > 100 | > 100 | > 100 | > 100 | > 100 | 64.6 | – | > 100 | > 100 | > 100 | – |
| CC(Oc1ccc(OCC2CCCCC2)cc1)C(N)=O (stereo not given) | > 100 | > 100 | > 100 | – | > 100 | > 100 | > 100 | > 100 | – | – | – | > 100 | – | > 100 | > 100 | > 100 | > 100 | – | – | – |
| O=C(O)[C@@H]1CCC(=O)N1C(c1ccc2c(c1)OCO2)c1ccc2c(c1)OCO2 | > 100 | > 100 | > 100 | > 100 | > 100 | > 100 | > 100 | > 100 | – | > 100 | > 100 | > 100 | > 100 | > 100 | > 100 | > 100 | > 100 | > 100 | > 100 | > 100 |
| COCc1cc2c(cc1/C(=C/[N+](=O)[O-])CS(=O)(=O)c1ccccc1)OCO2 | > 100 | > 100 | > 100 | > 100 | > 100 | > 100 | > 100 | – | > 100 | > 100 | > 100 | – | > 100 | > 100 | > 100 | > 100 | > 100 | > 100 | – | – |
